Experiment: mn = molality of the nth substance listed, in mol/kg
Details: 101 kPa, Liquid, Alternating current cell with electrodes

C[N+](C)(C)CCO.O=C([O-])C(F)(F)C(F)(F)C(F)(F)C(F)(F)C(F)(F)C(F)(F)F [(2-hydroxyethyl)trimethylammonium perfluoroheptanoate] + O
Details	electrical conductivity [S/m]
293.15 K, m1 = 0.000135	0.0009
293.15 K, m1 = 0.000317	0.002
293.15 K, m1 = 0.000535	0.0035
293.15 K, m1 = 0.000719	0.0047
293.15 K, m1 = 0.000905	0.0059
293.15 K, m1 = 0.001097	0.0071
293.15 K, m1 = 0.001295	0.0083
293.15 K, m1 = 0.001556	0.01
293.15 K, m1 = 0.001738	0.0112
293.15 K, m1 = 0.001921	0.0124
293.15 K, m1 = 0.002361	0.0151
293.15 K, m1 = 0.002553	0.0164
293.15 K, m1 = 0.002745	0.0179
293.15 K, m1 = 0.002967	0.0189
293.15 K, m1 = 0.003167	0.0201
293.15 K, m1 = 0.003365	0.021
293.15 K, m1 = 0.003617	0.0224
293.15 K, m1 = 0.003811	0.0234
293.15 K, m1 = 0.003989	0.0244
293.15 K, m1 = 0.004235	0.0259
293.15 K, m1 = 0.004463	0.0271
293.15 K, m1 = 0.004647	0.0283
293.15 K, m1 = 0.005243	0.0318
293.15 K, m1 = 0.00563	0.0339
293.15 K, m1 = 0.006196	0.037
293.15 K, m1 = 0.006659	0.0405
293.15 K, m1 = 0.006813	0.0416
293.15 K, m1 = 0.007215	0.0437
293.15 K, m1 = 0.007673	0.0468
293.15 K, m1 = 0.007989	0.0489
298.15 K, m1 = 0.000182	0.0012
298.15 K, m1 = 0.000351	0.0023
298.15 K, m1 = 0.000524	0.0036
298.15 K, m1 = 0.000696	0.0048
298.15 K, m1 = 0.000849	0.0059
298.15 K, m1 = 0.001022	0.0071
298.15 K, m1 = 0.001139	0.0079
298.15 K, m1 = 0.001334	0.0092
298.15 K, m1 = 0.001552	0.0107
298.15 K, m1 = 0.001763	0.0123
298.15 K, m1 = 0.001988	0.014
298.15 K, m1 = 0.002225	0.0158
298.15 K, m1 = 0.002433	0.0172
298.15 K, m1 = 0.002631	0.0186
298.15 K, m1 = 0.00283	0.0198
298.15 K, m1 = 0.003092	0.0212
298.15 K, m1 = 0.003297	0.0222
298.15 K, m1 = 0.003578	0.0237
298.15 K, m1 = 0.003893	0.0254
298.15 K, m1 = 0.004239	0.0271
298.15 K, m1 = 0.004535	0.0288
298.15 K, m1 = 0.004786	0.0303
298.15 K, m1 = 0.00505	0.0318
298.15 K, m1 = 0.005319	0.0333
298.15 K, m1 = 0.005529	0.0345
298.15 K, m1 = 0.005823	0.0361
303.15 K, m1 = 0.000162	0.0014
303.15 K, m1 = 0.000327	0.0027
303.15 K, m1 = 0.000396	0.0031
303.15 K, m1 = 0.000558	0.0045
303.15 K, m1 = 0.000597	0.0046
303.15 K, m1 = 0.000902	0.0068
303.15 K, m1 = 0.001056	0.0084
303.15 K, m1 = 0.001145	0.0088
303.15 K, m1 = 0.001333	0.0102
303.15 K, m1 = 0.001525	0.0116
303.15 K, m1 = 0.001575	0.0126
303.15 K, m1 = 0.001779	0.0138
303.15 K, m1 = 0.001975	0.0164
303.15 K, m1 = 0.00219	0.0173
303.15 K, m1 = 0.002392	0.0187
303.15 K, m1 = 0.002573	0.0201
303.15 K, m1 = 0.002757	0.0218
303.15 K, m1 = 0.003	0.0233
303.15 K, m1 = 0.003295	0.0254
303.15 K, m1 = 0.003479	0.0262
303.15 K, m1 = 0.003569	0.0269
303.15 K, m1 = 0.00377	0.0282
303.15 K, m1 = 0.00395	0.0297
303.15 K, m1 = 0.004136	0.0313
303.15 K, m1 = 0.004356	0.033
303.15 K, m1 = 0.00458	0.0343
303.15 K, m1 = 0.004761	0.0357
303.15 K, m1 = 0.005083	0.0368
308.15 K, m1 = 0.000308	0.0028
308.15 K, m1 = 0.001088	0.0096
308.15 K, m1 = 0.001458	0.0131
308.15 K, m1 = 0.001696	0.0151
308.15 K, m1 = 0.001932	0.0174
308.15 K, m1 = 0.002314	0.0204
308.15 K, m1 = 0.002768	0.0243
308.15 K, m1 = 0.002948	0.0255
308.15 K, m1 = 0.003212	0.0279
308.15 K, m1 = 0.003414	0.0297
308.15 K, m1 = 0.003749	0.0324
308.15 K, m1 = 0.004024	0.0348
308.15 K, m1 = 0.004369	0.037
308.15 K, m1 = 0.004622	0.0392
308.15 K, m1 = 0.004874	0.0413
308.15 K, m1 = 0.00517	0.0438
308.15 K, m1 = 0.005462	0.0462
313.15 K, m1 = 0.000152	0.0016
313.15 K, m1 = 0.000311	0.0032
313.15 K, m1 = 0.000509	0.005
313.15 K, m1 = 0.000756	0.0072
313.15 K, m1 = 0.000952	0.0094
313.15 K, m1 = 0.001127	0.0112
313.15 K, m1 = 0.001383	0.0138
313.15 K, m1 = 0.001573	0.0155
313.15 K, m1 = 0.001796	0.0179
313.15 K, m1 = 0.001971	0.0201
313.15 K, m1 = 0.002233	0.0227
313.15 K, m1 = 0.002359	0.0239
313.15 K, m1 = 0.002573	0.0262
313.15 K, m1 = 0.002937	0.0297
313.15 K, m1 = 0.003135	0.0321
313.15 K, m1 = 0.003363	0.0336
313.15 K, m1 = 0.003618	0.0359
313.15 K, m1 = 0.003798	0.0379
313.15 K, m1 = 0.003983	0.0396
313.15 K, m1 = 0.004151	0.0413
313.15 K, m1 = 0.004487	0.0444
313.15 K, m1 = 0.004771	0.0466
313.15 K, m1 = 0.00507	0.0489
313.15 K, m1 = 0.005297	0.0508
313.15 K, m1 = 0.005682	0.0543
